Data on two molecules can be found in patent US8323695B2, “Method for stabilizing phenylephrine” (McNeil-PPC, Inc., priority 2007, dated 2012).

Counter-ions that a name gives are not always drawn.

Data set [1] is described as follows: Formation of phenylephrine-maleate adducts as a function of pH. The following applies: combined with chlorpheniramine maleate. It is filed as physicochemical. From the text: Phenylephrine may be unstable in the presence of active ingredients which are the soluble salts of maleic acid. Phenylephrine-Maleate adducts form when phenylephrine hydrochloride is combined with chlorpheniramine maleate in solution and in solid dosage forms. This is due to the presence of phenylephrine with maleic acid. It was discovered that a pH below 6.0 yields low levels of one type of phenylephrine-maleate adduct (degradant #1) and it was also discovered that a pH above 4.5 yields low levels of a second type of phenylephrine-maleate adduct (degradant #2).

Data set [2] is described as follows: Stability of phenylephrine in solid formulations after spray drying an acidic solution. It is filed as physicochemical. From the text: Phenylephrine is known to experience physical and chemical degradation. Degradation of phenylephrine may be caused by a variety of factors including, but not limited to, the presence of oxygen, moisture, reducible sugars, bases, high temperatures, etc. […] Degradation of phenylephrine may be noticed by a change in color, e.g. changing from a whitish color to a darker, blackish color. Additionally, phenylephrine may degrade chemically as recorded by degradation peaks during analysis, such as an HPLC analysis. It is desirable to prevent, reduce or minimize the degradation of phenylephrine. An embodiment of the present invention provides a stable pharmaceutical composition having phenylephrine in a therapeutically effective amount wherein the phenylephrine has been spray dried. An additional embodiment of the present invention provides a stable composition of phenylephrine in a therapeutically effective amount wherein the phenylephrine has been layered or sprayed onto a substrate.

Regarding `CNC[C@H](O)c1cccc(O)c1` [phenylephrine hydrochloride], in data set [1] (pH above 4.5), the “levels of second type of phenylephrine-maleate adduct (degradant #2)” value is reported as “low levels”. In addition, in data set [1] (pH below 6.0), the “levels of phenylephrine-maleate adduct (degradant #1)” value is given as “low levels”.

`CNC[C@H](O)c1cccc(O)c1` [phenylephrine]: the “stability of phenylephrine in solid formulations” value in data set [2] is on record as “increases the stability”.
